Data taken from PMC3344384 (Chemistry & biology, 2011).

Experiments:
UCH-L3 = target: T1, UCH-L3 (Homo sapiens, UniProt P15374); test: Ub-Rho assay, UCH-L3; format: biochemical
T1 sequence (P15374 1-230): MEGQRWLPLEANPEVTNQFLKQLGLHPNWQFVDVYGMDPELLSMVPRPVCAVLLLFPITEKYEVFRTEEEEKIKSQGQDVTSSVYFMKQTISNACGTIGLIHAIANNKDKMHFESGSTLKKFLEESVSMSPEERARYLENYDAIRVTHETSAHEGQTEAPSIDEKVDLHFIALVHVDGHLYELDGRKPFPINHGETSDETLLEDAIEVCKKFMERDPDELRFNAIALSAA

caspase-1 = target: T2, caspase-1 (Homo sapiens, UniProt P29466); test: cysteine protease selectivity, caspase-1; format: biochemical
T2 sequence (P29466 120-297 limits assumed): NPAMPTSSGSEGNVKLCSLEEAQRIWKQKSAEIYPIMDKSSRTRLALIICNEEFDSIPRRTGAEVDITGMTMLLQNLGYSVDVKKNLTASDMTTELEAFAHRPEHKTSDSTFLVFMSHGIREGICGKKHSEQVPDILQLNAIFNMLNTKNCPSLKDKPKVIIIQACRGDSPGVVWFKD
T2 sequence (P29466 317-404 limits assumed): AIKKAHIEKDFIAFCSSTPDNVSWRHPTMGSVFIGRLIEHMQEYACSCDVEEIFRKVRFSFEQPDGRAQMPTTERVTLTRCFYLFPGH

caspase-3 = target: T3, caspase-3 (Homo sapiens, UniProt P42574); test: cysteine protease selectivity, caspase-3; format: biochemical
T3 sequence (P42574 29-175 limits assumed): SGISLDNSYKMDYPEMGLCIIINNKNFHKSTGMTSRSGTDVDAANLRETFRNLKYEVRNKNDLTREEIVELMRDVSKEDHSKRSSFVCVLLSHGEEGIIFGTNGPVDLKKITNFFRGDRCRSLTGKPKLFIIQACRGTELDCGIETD
T3 sequence (P42574 176-277 limits assumed): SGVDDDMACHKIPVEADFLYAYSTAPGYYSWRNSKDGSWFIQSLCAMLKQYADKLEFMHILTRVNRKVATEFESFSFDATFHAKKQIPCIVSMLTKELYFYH

USP7 = USP7 (Homo sapiens, UniProt Q93009); test: K63-linked diubiquitin cleavage assay, USP7; conditions: for IC50 for USP7, fold higher than that for USP1/UAF1: K63-linked diubiquitin substrate
Chain of USP7 (Q93009 whole entry): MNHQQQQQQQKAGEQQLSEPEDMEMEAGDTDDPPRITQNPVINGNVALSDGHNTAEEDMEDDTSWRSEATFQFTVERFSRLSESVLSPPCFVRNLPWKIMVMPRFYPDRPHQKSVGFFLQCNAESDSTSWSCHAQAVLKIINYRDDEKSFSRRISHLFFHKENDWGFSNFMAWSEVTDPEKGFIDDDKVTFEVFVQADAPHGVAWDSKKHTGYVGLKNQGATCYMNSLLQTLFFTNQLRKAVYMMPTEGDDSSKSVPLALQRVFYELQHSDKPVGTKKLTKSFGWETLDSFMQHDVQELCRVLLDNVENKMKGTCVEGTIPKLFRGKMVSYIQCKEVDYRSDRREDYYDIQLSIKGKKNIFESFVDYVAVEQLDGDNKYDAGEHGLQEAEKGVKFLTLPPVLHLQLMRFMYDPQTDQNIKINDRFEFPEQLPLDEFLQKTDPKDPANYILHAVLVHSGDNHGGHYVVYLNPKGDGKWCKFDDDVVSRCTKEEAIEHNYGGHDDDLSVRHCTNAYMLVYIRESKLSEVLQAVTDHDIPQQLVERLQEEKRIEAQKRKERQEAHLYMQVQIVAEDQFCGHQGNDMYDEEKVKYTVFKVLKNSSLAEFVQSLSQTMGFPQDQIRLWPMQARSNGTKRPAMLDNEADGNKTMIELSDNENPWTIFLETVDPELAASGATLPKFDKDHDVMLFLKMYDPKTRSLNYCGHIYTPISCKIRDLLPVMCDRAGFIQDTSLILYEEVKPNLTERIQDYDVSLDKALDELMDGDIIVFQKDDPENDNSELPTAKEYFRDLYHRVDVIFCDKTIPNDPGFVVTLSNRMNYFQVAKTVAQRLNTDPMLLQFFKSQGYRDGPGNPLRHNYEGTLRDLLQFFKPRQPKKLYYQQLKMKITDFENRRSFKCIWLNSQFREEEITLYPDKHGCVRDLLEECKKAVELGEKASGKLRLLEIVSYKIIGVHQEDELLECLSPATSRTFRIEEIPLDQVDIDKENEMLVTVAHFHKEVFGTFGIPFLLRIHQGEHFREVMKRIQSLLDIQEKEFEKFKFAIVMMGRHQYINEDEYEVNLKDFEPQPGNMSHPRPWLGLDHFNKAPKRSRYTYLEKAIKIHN

USP5 = target: T4, USP5 (Homo sapiens, UniProt P45974); test: K63-linked diubiquitin cleavage assay, USP5; conditions: K63-linked diubiquitin substrate; NI = no significant inhibition at 114 μM
T4 sequence (P45974 1-858): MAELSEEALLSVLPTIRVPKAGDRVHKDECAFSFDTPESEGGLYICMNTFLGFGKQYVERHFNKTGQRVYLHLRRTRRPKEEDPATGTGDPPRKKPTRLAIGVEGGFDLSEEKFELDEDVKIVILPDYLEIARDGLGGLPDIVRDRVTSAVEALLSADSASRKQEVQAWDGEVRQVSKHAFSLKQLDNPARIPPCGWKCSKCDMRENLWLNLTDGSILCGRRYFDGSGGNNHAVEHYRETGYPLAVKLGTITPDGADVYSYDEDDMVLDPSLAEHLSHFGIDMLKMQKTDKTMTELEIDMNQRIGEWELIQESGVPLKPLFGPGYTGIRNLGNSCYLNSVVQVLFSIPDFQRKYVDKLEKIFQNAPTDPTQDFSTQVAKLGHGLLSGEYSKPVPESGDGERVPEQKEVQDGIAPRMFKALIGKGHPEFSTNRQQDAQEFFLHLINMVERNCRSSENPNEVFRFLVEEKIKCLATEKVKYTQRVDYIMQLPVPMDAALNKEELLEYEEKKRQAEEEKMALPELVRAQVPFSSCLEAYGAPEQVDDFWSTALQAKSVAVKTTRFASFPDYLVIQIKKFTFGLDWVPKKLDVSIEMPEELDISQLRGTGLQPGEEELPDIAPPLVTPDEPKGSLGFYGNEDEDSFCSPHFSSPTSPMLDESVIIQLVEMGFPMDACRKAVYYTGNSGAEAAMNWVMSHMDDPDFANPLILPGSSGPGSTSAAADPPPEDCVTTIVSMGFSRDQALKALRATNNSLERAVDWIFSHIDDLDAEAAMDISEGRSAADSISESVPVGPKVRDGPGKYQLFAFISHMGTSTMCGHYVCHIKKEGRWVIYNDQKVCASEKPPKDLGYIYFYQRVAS

USP1/UAF1 = USP1/UAF1 (Homo sapiens, UniProt O94782+Q8TAF3); test: reversibility of inhibition by rapid dilution; conditions: incubation at 10 times IC50, 100-fold rapid dilution
Chain of USP1/UAF1 (O94782 whole entry): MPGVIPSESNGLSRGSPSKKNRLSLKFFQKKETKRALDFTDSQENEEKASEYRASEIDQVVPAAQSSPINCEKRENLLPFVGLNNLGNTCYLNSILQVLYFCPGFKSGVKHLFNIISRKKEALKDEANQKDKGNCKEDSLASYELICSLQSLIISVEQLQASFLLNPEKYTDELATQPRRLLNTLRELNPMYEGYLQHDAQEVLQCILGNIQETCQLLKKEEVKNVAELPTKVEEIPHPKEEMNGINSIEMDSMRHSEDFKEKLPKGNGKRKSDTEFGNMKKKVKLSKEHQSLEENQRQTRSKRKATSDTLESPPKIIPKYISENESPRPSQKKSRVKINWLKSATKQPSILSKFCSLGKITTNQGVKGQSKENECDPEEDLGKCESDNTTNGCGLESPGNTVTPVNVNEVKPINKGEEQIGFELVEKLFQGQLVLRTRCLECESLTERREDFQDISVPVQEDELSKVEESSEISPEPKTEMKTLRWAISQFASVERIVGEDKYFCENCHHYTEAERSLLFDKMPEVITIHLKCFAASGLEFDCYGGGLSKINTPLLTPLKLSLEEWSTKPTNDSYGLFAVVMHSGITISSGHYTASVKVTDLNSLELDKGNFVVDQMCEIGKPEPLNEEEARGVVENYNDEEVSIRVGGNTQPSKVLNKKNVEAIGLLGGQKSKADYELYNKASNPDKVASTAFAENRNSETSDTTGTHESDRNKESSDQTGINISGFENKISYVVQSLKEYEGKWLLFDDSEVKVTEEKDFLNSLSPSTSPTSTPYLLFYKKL
Chain of USP1/UAF1 (Q8TAF3 whole entry): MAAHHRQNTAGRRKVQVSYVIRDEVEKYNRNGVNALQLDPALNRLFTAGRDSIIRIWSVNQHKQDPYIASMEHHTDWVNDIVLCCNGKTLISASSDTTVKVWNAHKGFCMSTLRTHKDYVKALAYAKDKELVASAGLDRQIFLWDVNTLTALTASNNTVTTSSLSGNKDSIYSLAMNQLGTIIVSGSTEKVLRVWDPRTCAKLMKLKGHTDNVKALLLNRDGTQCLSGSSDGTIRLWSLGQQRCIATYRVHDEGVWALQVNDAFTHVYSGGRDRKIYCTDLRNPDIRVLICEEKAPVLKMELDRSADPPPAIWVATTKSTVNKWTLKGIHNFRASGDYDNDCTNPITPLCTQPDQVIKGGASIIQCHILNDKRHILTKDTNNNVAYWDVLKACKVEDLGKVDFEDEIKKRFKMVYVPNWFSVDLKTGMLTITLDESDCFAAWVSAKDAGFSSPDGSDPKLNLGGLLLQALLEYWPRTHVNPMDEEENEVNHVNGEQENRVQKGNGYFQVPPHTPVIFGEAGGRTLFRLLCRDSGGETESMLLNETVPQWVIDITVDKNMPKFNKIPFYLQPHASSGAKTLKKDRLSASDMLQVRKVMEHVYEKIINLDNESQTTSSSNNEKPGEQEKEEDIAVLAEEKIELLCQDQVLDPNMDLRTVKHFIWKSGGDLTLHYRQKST

USP8 = target: T5, USP8 (Homo sapiens, UniProt P40818); test: K63-linked diubiquitin cleavage assay, USP8; conditions: for IC50 USP8: K63-linked diubiquitin substrate, NI = no significant inhibition at 114 μM
T5 sequence (P40818 1-1118): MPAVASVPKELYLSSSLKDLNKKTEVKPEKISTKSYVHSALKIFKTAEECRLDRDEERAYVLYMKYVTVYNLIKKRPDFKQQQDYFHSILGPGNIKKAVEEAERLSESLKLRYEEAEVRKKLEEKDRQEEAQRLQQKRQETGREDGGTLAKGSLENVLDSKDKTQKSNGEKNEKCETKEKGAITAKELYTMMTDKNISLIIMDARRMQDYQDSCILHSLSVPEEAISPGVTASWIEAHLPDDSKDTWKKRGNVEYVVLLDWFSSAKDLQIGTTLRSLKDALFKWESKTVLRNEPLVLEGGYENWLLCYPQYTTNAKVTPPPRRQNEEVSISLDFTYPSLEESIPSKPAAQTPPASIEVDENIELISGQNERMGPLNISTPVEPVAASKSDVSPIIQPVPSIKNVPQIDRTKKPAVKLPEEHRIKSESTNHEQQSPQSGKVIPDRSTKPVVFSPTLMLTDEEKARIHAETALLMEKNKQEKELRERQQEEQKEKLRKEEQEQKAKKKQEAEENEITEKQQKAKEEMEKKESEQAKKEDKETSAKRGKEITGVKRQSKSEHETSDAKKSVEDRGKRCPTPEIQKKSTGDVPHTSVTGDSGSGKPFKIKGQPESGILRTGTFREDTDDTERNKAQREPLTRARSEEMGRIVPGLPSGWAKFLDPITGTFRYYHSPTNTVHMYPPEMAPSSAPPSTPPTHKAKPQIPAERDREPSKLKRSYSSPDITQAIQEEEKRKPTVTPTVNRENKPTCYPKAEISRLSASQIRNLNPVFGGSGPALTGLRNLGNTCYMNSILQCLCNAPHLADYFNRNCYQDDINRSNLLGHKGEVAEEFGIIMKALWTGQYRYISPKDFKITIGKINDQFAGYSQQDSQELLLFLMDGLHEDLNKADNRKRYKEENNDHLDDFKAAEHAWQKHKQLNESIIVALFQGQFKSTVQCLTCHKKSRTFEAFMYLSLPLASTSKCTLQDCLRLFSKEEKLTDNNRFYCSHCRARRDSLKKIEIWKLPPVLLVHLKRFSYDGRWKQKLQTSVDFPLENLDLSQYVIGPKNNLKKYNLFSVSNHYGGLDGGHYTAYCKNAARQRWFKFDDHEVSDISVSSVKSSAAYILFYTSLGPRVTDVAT

Row | IC50 (UCH-L3) | IC50 (caspase-1) | IC50 (caspase-3) | IC50 (USP7) | IC50 USP5 (USP5) | reversibility of inhibition (USP1/UAF1) | IC50 (USP8) | Compound | IC50 for USP7, fold higher than that for USP1/UAF1 (USP7) | IC50 USP8 (USP8)
1 | > 500 µM | > 250 µM | > 250 µM | 9 ± 1 µM | no inhibition | largely reversible inhibitors |  | CN1CCN(CCCN2c3ccccc3Sc3ccc(C(F)(F)F)cc32)CC1 [Trifluoperazine, trifluoperazine] |  | 
2 | > 500 µM | > 250 µM | > 250 µM | 13 ± 1 µM | no inhibition | largely reversible inhibitors | > 114 µM | OCCN1CCN(CCC=C2c3ccccc3Sc3ccc(C(F)(F)F)cc32)CC1 [Flupenthixol, flupenthixol] |  | 
3 | > 500 µM | > 250 µM | > 250 µM | 47 ± 1 µM | No inhibition | largely reversible inhibitors |  | O=c1[nH]c2ccccc2n1C1CCN(CCCC(c2ccc(F)cc2)c2ccc(F)cc2)CC1 [Pimozide, pimozide] | 24 fold | No inhibition

Row | Compound | IC50 (UCH-L3) | IC50 (caspase-1) | IC50 (caspase-3) | IC50 (USP7) | IC50 USP5 (USP5) | reversibility of inhibition (USP1/UAF1) | IC50 (USP8) | IC50 for USP7, fold higher than that for USP1/UAF1 (USP7) | IC50 USP8 (USP8)
4 | CC(C)(Sc1ccc(CCN(CCCCC2CCCCC2)C(=O)NC2CCCCC2)cc1)C(=O)O [GW7647] | > 200 µM | 42 µM | > 250 µM | 44 ± 2 µM | did not inhibit | largely reversible inhibitors |  | 9 fold | did not inhibit
